Reference: patent publication US6500405B1, “Use of certain amides as probes for detection of antitubulin activity and resistance monitoring” (Dow AgroSciences LLC, priority 1996, dated 2002)

Legend:
[1] = target: tubulin in Phytophthora capsici (Phytophthora capsici, UniProt A4ZYP2); test: Binding assay, tritiated compound 1 as probe, germinated zoospore cysts of Phytophthora capsici; conditions: 1 hour preincubation; for IC50: 20 minutes with tritiated compound 1, read-out: IC50 (concentration required to inhibit binding of the radioligand by 50%) (converted)
tubulin in Phytophthora capsici, sequence (A4ZYP2 entry or part of it): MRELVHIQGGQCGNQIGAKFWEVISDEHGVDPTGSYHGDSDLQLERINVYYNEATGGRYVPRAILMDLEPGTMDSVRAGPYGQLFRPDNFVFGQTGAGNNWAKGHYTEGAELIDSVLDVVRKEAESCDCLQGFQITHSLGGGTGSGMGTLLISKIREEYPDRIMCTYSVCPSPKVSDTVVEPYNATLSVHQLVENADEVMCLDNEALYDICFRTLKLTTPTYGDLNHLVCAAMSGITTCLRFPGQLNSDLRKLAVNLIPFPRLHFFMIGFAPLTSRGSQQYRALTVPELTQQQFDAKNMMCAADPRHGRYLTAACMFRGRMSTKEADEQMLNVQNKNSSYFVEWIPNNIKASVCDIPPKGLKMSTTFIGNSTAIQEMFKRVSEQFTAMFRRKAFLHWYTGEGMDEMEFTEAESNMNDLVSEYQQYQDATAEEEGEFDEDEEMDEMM
tubulin in Phytophthora capsici, sequence (A4ZYP4 entry or part of it, further chain): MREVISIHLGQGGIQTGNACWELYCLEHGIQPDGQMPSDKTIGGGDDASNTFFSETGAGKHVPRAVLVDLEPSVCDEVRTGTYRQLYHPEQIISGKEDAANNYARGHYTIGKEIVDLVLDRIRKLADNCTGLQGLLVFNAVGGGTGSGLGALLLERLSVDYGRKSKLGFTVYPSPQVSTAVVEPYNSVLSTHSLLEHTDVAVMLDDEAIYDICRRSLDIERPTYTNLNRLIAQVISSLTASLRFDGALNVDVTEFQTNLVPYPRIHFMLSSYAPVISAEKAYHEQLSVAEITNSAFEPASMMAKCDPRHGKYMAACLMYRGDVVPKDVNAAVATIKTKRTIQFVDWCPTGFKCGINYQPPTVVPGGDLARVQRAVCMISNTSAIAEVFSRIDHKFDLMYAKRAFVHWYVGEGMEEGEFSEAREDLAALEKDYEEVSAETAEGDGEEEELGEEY
Description: The effect of zarilamide and compounds 7, 8, 16, 19, 23 and 27 described in Table 1 on binding of compound 1 to tubulin in Phytophthora capsici is shown in this example.
Zoospores of P. capsici were prepared as follows. Petri plates, 9 cm in diameter, containing 15 ml of V-8 agar were inoculated with a mycelial plug of P. capsici and incubated for 4 days in the dark at 25° C., then placed under continuous fluorescent light for 3 days to induce sporulation. To induce zoospore release, 15 ml of sterile water was added to each plate. The plates were incubated at room temperature for 10 minutes, followed by 20 minutes at 4° C., and finally returned to room temperature for 15 minutes. The zoospore-containing fluid was then removed from each plate and adjusted to a density of 5×10^5 zoospores per ml. Assay tubes containing germinated zoospores cysts were prepared by adding 100 μl of zoospore suspension to 400 μl of asparagine-sucrose medium in 16×1.25 cm polypropylene tubes, which were then loosely capped and incubated on a gyrotary shaker at 120 rpm for 24 hours at 26° C.
Tubes containing germinated zoospore cysts then received 2.5 μl of DMSO (control) or 2.5 μl of test compound dissolved in DMSO. Each compound was tested at a series of concentrations. Tubes were incubated with shaking at 26° C. for 1 hour, then 2.5 μl of a 40 μM solution of tritium-labeled compound 1 in DMSO were added. Vials were incubated with shaking at 26° C. for 20 minutes, then binding of the radioligand was stopped by adding 1.5 ml of ice-cold unlabeled 133 μM compound 1, and transferring the tubes to an ice bath. Following centrifugation at 3,400 rpm for 3 minutes, the supernatant was discarded and the pelleted cells were resuspended in 2 ml of ice-cold 10% trichloroacetic acid. Samples were kept for 1 hour in an ice bath, centrifuged again, and the cells resuspended in 2 ml of ice-cold ethanol. After incubation for a further 1 hour in an ice-bath, an additional 4 ml of ice-cold ethanol was added to each tube and the cells were collected by filtration on glass fiber filters in a Brandell cell harvester (Brandel Biomedical Research and Development Laboratories, Inc., Gaithersburg, Md.), and washed twice with 4 ml of ice-cold ethanol. The filters with washed cells were transferred to scintillation vials and 0.1 ml of water was added followed by 1 ml of Protosol™ (Dupont NEN Research Products). The vials were incubated at 60° C. for 30 minutes and cooled to room temperature. Ten ml of Econofluor™ scintillation fluid (Dupont NEN Research Products) was added, and the samples were counted in a scintillation counter to determine the amount of bound radioactivity. IC50 values for each test compound (defined as the concentration required to inhibit binding of the radioligand by 50% as compared to controls lacking the test compound) were determined from dose-response curves and are presented in Table 9.

[2] = tested on: tubulin in tobacco suspension-cultured cells; test: Whole cell binding assay, tritiated compound 1 as probe, tobacco suspension-cultured cells; conditions: for Binding of radioligand (% control): 2 hours preincubation, 20 minutes with tritiated compound 1; for Effect on binding of the radioligand (in words): tobacco cells, tritiated compound 1
Description: The effects of various antitubulin compounds from different chemical classes on binding of compound 1 to tubulin in tobacco suspension-cultured cells is shown in this example.
Aliquots (2 ml) of suspension-cultured tobacco cells grown as described in Example 2 were added to 25 ml capacity glass vials. Each vial then received 5 μl of DMSO (control) or 5 μl of an antitubulin compound dissolved in DMSO. Vials were incubated with shaking at 27° C. for 2 hours, then 5 μl of a 100 μM solution of tritium-labeled compound 1 in DMSO was added. Vials were incubated with shaking at 27° C. for 20 minutes, then binding of the radioligand was stopped by adding 5 μl of unlabeled 40 mM compound 1. The samples were incubated with shaking at 27° C. for a further 20 minutes, then transferred to 15 ml capacity polypropylene centrifuge tubes in an ice bath. Each vial was rinsed with 2 ml ice-cold growth medium (described in example 2) and the rinse solution was then added to the rest of the sample. Following centrifugation at 4° C. for 3 minutes at 2,500 rpm the supernatant was discarded and the pelleted cells were resuspended in 4 ml of ice-cold 10% trichloroacetic acid. Samples were kept for 1 hour in an ice bath, centrifuged again, and the cells resuspended in 4 ml of ice-cold ethanol. After incubation for a further 1 hour in an ice-bath the cells were collected by filtration on glass fiber filters and washed twice with 10 ml of ice-cold ethanol. The filters with washed cells were transferred to scintillation vials, 10 ml of Hydrofluor™ scintillation fluid (National Diagnostics, Manville, N.J.) was added to each, and the samples were counted in a scintillation counter to determine the amount of bound radioactivity. The effects of different antitubulin compounds on binding of the radioligand are presented in Table 7 with the amounts of radioligand bound in the presence of each antitubulin compound expressed as a percentage of the amount of radioligand bound in the DMSO control.

[3] = tested on: tubulin in Phytophthora capsici mycelium; test: Whole cell binding assay, tritiated compound 1 as probe, Phytophthora capsici mycelium; conditions: 1 hour preincubation, 20 min with tritiated compound 1
Description: The effect of paclitaxel on binding of compound 1 to tubulin in Phytophthora capsici is shown in this example.
A liquid mycelial shake culture of P. capsici in asparagine-sucrose medium was used to prepare a homogeneous suspension of fungal material for binding assays. Asparagine-sucrose medium (100 ml) was inoculated with mycelial plugs cut from cultures grown on V-8 agar, and incubated at 26° C. on a gyrotary shaker for 48 hours. The culture was homogenized in a blender, and 30 ml of the homogenate subcultured into 100 ml of fresh medium, which was then incubated at 26° C. on a gyrotary shaker for 17 hours. The resulting mycelium was recovered from the medium by centrifugation and resuspended in 1170 ml of fresh medium. Aliquots (2 ml) of this suspension were added to 25 ml capacity glass vials. Each vial then received 5 μl of DMSO (control) or 5 μl of paclitaxel dissolved in DMSO. Vials were incubated with shaking at 26° C. for 1 hour, then 5 μl of a 100 μM solution of tritium-labeled compound 1 in DMSO was added. Vials were incubated with shaking at 26° C. for 20 min, then binding of the radioligand was stopped by adding 5 μl of unlabeled 40 mM compound 1. The samples were incubated with shaking at 27° C. for a further 20 minutes, then transferred to 15 ml capacity centrifuge tubes in an ice bath. Each vial was rinsed with 2 ml ice-cold medium which was then added to the rest of the sample. Following centrifugation at 4° C. for 5 minutes at 3,400 rpm, the supernatant was discarded and the pelleted cells were resuspended in 4 ml of ice-cold 10% trichloroacetic acid. Samples were kept for 1 hour in an ice bath, centrifuged again, and the cells resuspended in 4 ml of ice-cold ethanol. After incubation for a further 2 hours in an ice-bath the cells were collected by filtration on glass fiber filters and washed twice with 10 ml of ice-cold ethanol. The filters with washed cells were transferred to scintillation vials, 10 ml of Hydrofluor™ scintillation fluid was added, and the samples were counted in a scintillation counter to determine the amount of bound radioactivity. The effect of paclitaxel at various concentrations on binding of the radioligand are presented in Table 8, with the amounts of radioligand bound in the presence of paclitaxel expressed as a percentage of the amount of radioligand bound in the DMSO control.

[4] = tested on: tubulin in colon cancer cell line HCT-116; test: Whole cell binding assay, tritiated S-enantiomer of compound 2 as probe, colon cancer cell line HCT-116; conditions: for Binding of radioligand (% control): HCT-116, 1 hour preincubation, 1 hour with radioligand
Description: Effect of antitubulin compounds on binding of the tritiated S-enantiomer of compound 2 to tubulin in a whole cell binding assay using the colon cancer cell line HCT-116 is shown by this example.
The colon cancer cell line HCT-116 (obtained from the American Type Culture Collection) was cultured in 75 cm^2 flasks containing McCoy's 5a Modified Medium with 10% heat-inactivated fetal bovine serum, 50 U/ml of penicillin G and 50 U/ml of streptomycin sulfate. A cell suspension was prepared by trypsinization of the culture, and adjusted to a density of 10^6 cells/ml by dilution into incomplete medium (medium lacking serum, penicillin G and streptomycin). Aliquots (150 μl) of cell suspension were added to wells of 96-well glass fiber filter plates (Millipore Multiscreen® plates, 1 μm glass fiber, Type B). Wells then received 30 μl of a solution of the test antitubulin compound in incomplete medium/DMSO mixture (8.5:1, v/v) or 30 μl of the incomplete medium/DMSO mixture alone (control). After mixing, the plates were incubated at 37° C. for 1 hour, then 25 μl of 0.8 μM tritium-labeled S-enantiomer of compound 2 was added to each well. After mixing, the plates were incubated at 37° C. for 1 hour, then binding of the radioligand to tubulin was stopped by adding 50 μl of 100 μM unlabeled compound 2. The fluid was removed from the plate by vacuum filtration through the glass fiber, then 100 μl of ice-cold 10% trichloroacetic acid was added to each well. The plates were incubated for 1 h at 4° C., then the fluid was removed by filtration. Ice-cold ethanol (250 μl) was added to each well, the plates incubated for 1 h at 4° C., then the ethanol was removed by filtration. Wells were washed 4 more times with 250 μl of ice-cold ethanol. After drying the plates at 37° C. for 20 min, the glass fiber filters were punched out of the wells into scintillation vials, 5 ml of scintillation fluid was added to each vial, and the samples were counted in a scintillation counter to determine the amount of bound radioactivity. The effects of different antitubulin compounds on binding of the radioligand are presented in Table 11 with the amounts of radioligand bound in the presence of each antitubulin compound expressed as a percentage of the amount of radioligand bound in the control.

SMILES: CCC(C)(NC(=O)c1cc(Cl)cc(C=NOC)c1)C(=O)CCl (stereo not drawn) [Compound 7]
- IC50 [1]: 2840 nM

SMILES: CC(C)C(C)(NC(=O)c1cc(Cl)cc(Cl)c1)C(=O)CCl (stereo not drawn) [Compound 27]
- IC50 [1]: 5440 nM

SMILES: CC(=O)O[C@H]1C(=O)[C@@]2(C)[C@H]([C@H](OC(=O)c3ccccc3)[C@]3(O)C[C@H](OC(=O)[C@H](O)[C@@H](NC(=O)c4ccccc4)c4ccccc4)C(C)=C1C3(C)C)[C@]1(OC(C)=O)CO[C@@H]1C[C@@H]2O [Paclitaxel, paclitaxel]
- Binding of radioligand (% control) ([2]; antitubulin compound 25 μM): 50.3 % control
- Effect on binding of the radioligand (in words) [2]: reduced binding of the radioligand
- Binding of radioligand (% control) ([3]; 0.004 μM): 84.5 % control
- Binding of radioligand (% control) ([3]; 0.02 μM): 54.6 % control
- Binding of radioligand (% control) ([3]; 0.1 μM): 34.6 % control
- Binding of radioligand (% control) ([3]; 0.5 μM): 23.6 % control
- Binding of radioligand (% control) ([4]; 0.1 μM): 37 % control
- Binding of radioligand (% control) ([4]; 1 μM): 19 % control
- Binding of radioligand (% control) ([4]; 10 μM): 6 % control
- Binding of radioligand (% control) ([4]; 100 μM): 4 % control
- Effect on binding of the radioligand (in words) ([4]; HCT-116, tritiated S-enantiomer of compound 2): reduced binding of the radioligand

SMILES: CCC(C)(NC(=O)c1cc(C)cc(Br)c1)C(=O)CCl (stereo not drawn) [Compound 8]
- IC50 [1]: 721 nM

SMILES: C#CC(C)(C)NC(=O)c1cc(Cl)cc(Cl)c1 [Pronamide, pronamide]
- Binding of radioligand (% control) ([2]; antitubulin compound 100 μM): 68.7 % control
- Effect on binding of the radioligand (in words) [2]: reduced binding of the radioligand

SMILES: CCCN(CCC)c1c([N+](=O)[O-])cc(C(F)(F)F)cc1[N+](=O)[O-] [Trifluralin, trifluralin]
- Binding of radioligand (% control) ([2]; antitubulin compound 100 μM): 129.0 % control
- Effect on binding of the radioligand (in words) [2]: increased binding of the radioligand

SMILES: CC(C)(NC(=O)c1cc(Cl)cc(Cl)c1)C(=O)CCl [Compound 19]
- IC50 [1]: 810 nM

SMILES: CC(C)OC(=O)Nc1cccc(Cl)c1 [Chlorpropham, chlorpropham]
- Binding of radioligand (% control) ([2]; antitubulin compound 100 μM): 29.1 % control
- Effect on binding of the radioligand (in words) [2]: reduced binding of the radioligand

SMILES: CCC(C)(NC(=O)c1cccc(C=NOC)c1)C(=O)CCl (stereo not drawn) [Compound 16]
- IC50 [1]: 3760 nM

SMILES: CCOC(C#N)NC(=O)c1ccc(Cl)cc1 (stereo not drawn) [Zarilamide, zarilamide]
- IC50 (concentration required to inhibit binding of the radioligand by 50%) ([1]; 20 minutes with tritiated compound 1): 7.02 µg/mL

SMILES: CCC(C)(NC(=O)c1cc(Cl)c(Cl)c(Cl)c1)C(=O)CCl (stereo not drawn) [Compound 23]
- IC50 [1]: 168 nM
